Experimental data: patent US9169260B2 (MERCK SHARP & DOHME CORP., priority 2011, dated 2015)

Molecular target: GST tagged IRAK-4 (Homo sapiens (Human), UniProt Q9NWZ3)
Assay: IRAK-4 Kinase Assay (IMAP fluorescence polarization)
Type: biochemical
Details: 100 μM ATP, 30 minutes at 25° C.
Protocol: The kinase activity of IRAK-4 is determined by its ability to catalyze the phosphorylation of a fluorescent polypeptide substrate. The extent of phosphorylation is measured using the IMAP technology (Molecular Devices) where the phosphorylated fluorescent substrate binds to the large M(III)-based nanoparticles which reduces the rotational speed of the substrate and thus increases its fluorescent polarization (FP).
20 μl reaction mixture contains 10 mM TriHCl, pH 7.2, 0.5 nM GST tagged IRAK-4 (SignalChem), 100 nM fluorescent peptide substrate (RP7030, Molecular Devices), 100 μM ATP, 1 mM DTT, 1 mM MgCl2, and 0.01% Tween 20. The reaction is initiated by the addition of ATP. After incubation for 30 minutes at 25° C., 60 μl of Progressive IMAP Reagent (Molecular Devices) is added to stop the reaction. Change in RP7030's FP is determined by a FP reader (Analyst HT, LH, BioSystems).

GST tagged IRAK-4, sequence (Q9NWZ3 whole entry): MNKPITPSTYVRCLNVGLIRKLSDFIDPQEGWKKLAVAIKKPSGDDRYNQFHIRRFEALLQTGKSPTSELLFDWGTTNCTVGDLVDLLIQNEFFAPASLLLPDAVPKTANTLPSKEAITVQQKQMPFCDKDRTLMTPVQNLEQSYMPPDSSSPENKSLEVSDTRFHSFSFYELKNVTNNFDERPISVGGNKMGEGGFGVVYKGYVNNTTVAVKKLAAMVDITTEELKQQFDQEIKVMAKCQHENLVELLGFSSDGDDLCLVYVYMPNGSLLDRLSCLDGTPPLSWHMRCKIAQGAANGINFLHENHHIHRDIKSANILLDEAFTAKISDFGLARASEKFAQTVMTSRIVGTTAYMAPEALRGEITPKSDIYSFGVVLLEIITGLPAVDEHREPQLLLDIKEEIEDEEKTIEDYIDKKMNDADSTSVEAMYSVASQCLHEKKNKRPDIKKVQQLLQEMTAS

Compound	IC50 (μM)	IC50
Cc1ccc(-n2nc(C3CC3)cc2NC(=O)c2cnn3cccnc23)nc1 [Example 180, N-(3-cyclopropyl-1-(5-methylpyridin-2-yl)-1H-pyrazol-5-yl)pyrazolo[1,5-a]pyrimidine-3-carboxamide]	> 1 µM	–
Cc1ccc(-n2nc(C3CCN(C4CC[C@@H](C)C4)CC3)cc2NC(=O)c2cnn3cccnc23)nc1 (stereo partly drawn) [Example 273, N-[3-{1-[(3R)-3-methylcyclopentyl]piperidin-4-yl}-1-(5-methylpyridin-2-yl)-1H-pyrazol-5-yl]pyrazolo[1,5-a]pyrimidine-3-carboxamide]	–	< 0.1 µM
COc1ccc(-n2nc(C3CCNCC3)cc2NC(=O)c2cnn3cc(C(N)=O)cnc23)cc1 [Example 105, N3-(1-(4-methoxyphenyl)-3-(piperidin-4-yl)-1H-pyrazol-5-yl)pyrazolo[1,5-a]pyrimidine-3,6-dicarboxamide]	–	< 0.1 µM
CCCN1CCC(c2cc(NC(=O)c3cnn4cccnc34)n(-c3ccc(C)cn3)n2)CC1 [Example 280, N-[1-(5-methylpyridin-2-yl)-3-(1-propylpiperidin-4-yl)-1H-pyrazol-5-yl]pyrazolo[1,5-a]pyrimidine-3-carboxamide]	–	< 0.1 µM
Cc1ccc(-n2nc(-c3ccc(S(C)(=O)=O)nc3)cc2NC(=O)c2cnn3cccnc23)cc1 [Example 351, N-{1-(4-methylphenyl)-3-[6-(methylsulfonyl)pyridin-3-yl]-1H-pyrazol-5-yl}pyrazolo[1,5-a]pyrimidine-3-carboxamide]	< 1 µM	–
CNS(=O)(=O)c1ccc(-c2cc(NC(=O)c3cnn4cccnc34)n(-c3ccc(C)cc3)n2)cc1 [Example 347, N-{1-(4-methylphenyl)-3-[4-(methylsulfamoyl)phenyl]-1H-pyrazol-5-yl}pyrazolo[1,5-a]pyrimidine-3-carboxamide]	–	< 0.1 µM
CC(C)(N)c1ccc(-n2nc(C3CCN(S(C)(=O)=O)CC3)cc2NC(=O)c2cnn3cccnc23)nc1 [Example 159, N-(1-(5-(2-aminopropan-2-yl)pyridin-2-yl)-3-(1-(methylsulfonyl)piperidin-4-yl)-1H-pyrazol-5-yl)pyrazolo[1,5-a]pyrimidine-3-carboxamide]	–	< 0.1 µM
COc1ccc(-n2nc(-c3ccncc3)cc2NC(=O)c2cnn3cccnc23)cc1 [Example 127, N-(1-(4-methoxyphenyl)-3-(pyridin-4-yl)-1H-pyrazol-5-yl)pyrazolo[1,5-a]pyrimidine-3-carboxamide]	< 1 µM	–
methyl((4-(5-(pyrazolo[1,5-a]pyrimidine-3-carboxamido)-1-(p-tolyl)-1H-pyrazol-3-yl)cyclohexyl)methyl)carbamate [Example 183]	< 1 µM	–
Cc1ccc(-n2nc(C3CCN(S(C)(=O)=O)CC3)cc2NC(=O)c2cnn3cc(C(N)=O)cnc23)cc1 [Example 120, N3-(3-(1-(methylsulfonyl)piperidin-4-yl)-1-(p-tolyl)-1H-pyrazol-5-yl)pyrazolo[1,5-a]pyrimidine-3,6-dicarboxamide]	–	< 0.1 µM
Cc1ccc(-n2nc(C3CCCN(S(C)(=O)=O)C3)cc2NC(=O)c2cnn3cccnc23)cc1 (stereo not shown) [Example 43, N-(3-(1-(methylsulfonyl)piperidin-3-yl)-1-(p-tolyl)-1H-pyrazol-5-yl)pyrazolo[1,5-a]pyrimidine-3-carboxamide]	< 1 µM	–
Cc1ccc(-n2nc(C3CCN(C4CCC5(CCC(=O)N5)CC4)CC3)cc2NC(=O)c2cnn3cccnc23)cc1 (stereo not shown) [Example 255, N-{1-(4-methylphenyl)-3-[1-(2-oxo-1-azaspiro[4.5]dec-8-yl)piperidin-4-yl]-1H-pyrazol-5-yl}pyrazolo[1,5-a]pyrimidine-3-carboxamide]	–	< 0.1 µM
COc1ccc(-c2cc(NC(=O)c3cnn4cccnc34)n(-c3cccc(F)c3)n2)cc1 [Example 132, N-(1-(3-fluorophenyl)-3-(4-methoxyphenyl)-1H-pyrazol-5-yl)pyrazolo[1,5-a]pyrimidine-3-carboxamide]	< 1 µM	–
Cc1ccc(-n2nc(-c3ccncc3)cc2NC(=O)c2cnn3cccnc23)cc1F [Example 128, N-(1-(3-fluoro-4-methylphenyl)-3-(pyridin-4-yl)-1H-pyrazol-5-yl)pyrazolo[1,5-a]pyrimidine-3-carboxamide]	< 1 µM	–
Cc1ccc(-n2nc(C3CCN(C4CCCC4)CC3)cc2NC(=O)c2cnn3cccnc23)cc1 [Example 325, N-(3-(1-cyclopentylpiperidin-4-yl)-1-(p-tolyl)-1H-pyrazol-5-yl)pyrazolo[1,5-a]pyrimidine-3-carboxamide]	–	< 0.1 µM
COC(=O)C1CCC(c2cc(NC(=O)c3cnn4cccnc34)n(-c3ccc(C)cc3)n2)CC1 (stereo not shown) [Example 93, methyl 4-(5-(pyrazolo[1,5-a]pyrimidine-3-carboxamido)-1-(p-tolyl)-1H-pyrazol-3-yl)cyclohexanecarboxylate]	> 1 µM	–

Compound	IC50 (μM)	IC50
Cc1ccc(-n2nc(C3CCN(S(=O)(=O)c4ccc5ncsc5c4)CC3)cc2NC(=O)c2cnn3cccnc23)cc1 [Example 384, N-{3-[1-(1,3-benzothiazol-6-ylsulfonyl)piperidin-4-yl]-1-(4-methylphenyl)-1H-pyrazol-5-yl}pyrazolo[1,5-a]pyrimidine-3-carboxamide]	< 1 µM	–
Cc1ccc(-n2nc(C3CCC(C(=O)N(C)C)CC3)cc2NC(=O)c2cnn3cccnc23)cc1 (stereo not shown) [Example 96, N-(3-(4-(dimethylcarbamoyl)cyclohexyl)-1-(p-tolyl)-1H-pyrazol-5-yl)pyrazolo[1,5-a]pyrimidine-3-carboxamide]	–	< 0.1 µM
Cc1ccc(-n2nc(C3CCN(S(=O)(=O)Cc4ccncc4)CC3)cc2NC(=O)c2cnn3cccnc23)cc1 [Example 358, N-[1-(4-methylphenyl)-3-{1-[(pyridin-4-ylmethyl)sulfonyl]piperidin-4-yl}-1H-pyrazol-5-yl]pyrazolo[1,5-a]pyrimidine-3-carboxamide]	< 1 µM	–
COc1ccc(-n2nc(C3CCNCC3)cc2NC(=O)c2cnn3cc(Br)cnc23)cc1 [Example 104, 6-bromo-N-(1-(4-methoxyphenyl)-3-(piperidin-4-yl)-1H-pyrazol-5-yl)pyrazolo[1,5-a]pyrimidine-3-carboxamide]	< 1 µM	–
CC(C)N1CC(c2cc(NC(=O)c3cnn4cccnc34)n(-c3ccc(C4CC4)cc3F)n2)C1 [Example 88, N-(1-(4-cyclopropyl-2-fluorophenyl)-3-(1-isopropylazetidin-3-yl)-1H-pyrazol-5-yl)pyrazolo[1,5-a]pyrimidine-3-carboxamide]	–	< 0.1 µM
Cc1ccc(-n2nc(-c3ccncc3)cc2NC(=O)c2cnn3cccnc23)cc1 [Example 125, N-(3-(pyridin-4-yl)-1-(p-tolyl)-1H-pyrazol-5-yl)pyrazolo[1,5-a]pyrimidine-3-carboxamide]	–	< 0.1 µM
CC(C)N1CCC(c2cc(NC(=O)c3cnn4cccnc34)n(-c3ccc(C4CC4)cc3F)n2)CC1 [Example 74, N-(1-(4-cyclopropyl-2-fluorophenyl)-3-(1-isopropylpiperidin-4-yl)-1H-pyrazol-5-yl)pyrazolo[1,5-a]pyrimidine-3-carboxamide]	–	< 0.1 µM
COc1ccc(-c2cc(NC(=O)c3cnn4cccnc34)n(-c3ccc(C)cc3)n2)cc1OC [Example 133, N-(3-(3,4-dimethoxyphenyl)-1-(p-tolyl)-1H-pyrazol-5-yl)pyrazolo[1,5-a]pyrimidine-3-carboxamide]	–	< 0.1 µM
O=C(Nc1cc(C2CCNCC2)nn1-c1ccc(OC(F)(F)F)cc1)c1cnn2cccnc12 [Example 13, N-(3-(piperidin-4-yl)-1-(4-(trifluoromethoxy)phenyl)-1H-pyrazol-5-yl)pyrazolo[1,5-a]pyrimidine-3-carboxamide]	< 1 µM	–
Cc1ccc(-n2nc(C3CCN(S(=O)(=O)c4cccc(C(F)(F)F)n4)CC3)cc2NC(=O)c2cnn3cccnc23)cc1 [Example 394, N-[1-(4-methylphenyl)-3-(1-{[6-(trifluoromethyl)pyridin-2-yl]sulfonyl}piperidin-4-yl)-1H-pyrazol-5-yl]pyrazolo[1,5-a]pyrimidine-3-carboxamide]	< 1 µM	–
COc1ccc(-n2nc(C3CCN(S(C)(=O)=O)CC3)cc2NC(=O)c2cnn3cccnc23)cc1 [Example 16, N-(1-(4-methoxyphenyl)-3-(1-(methylsulfonyl)piperidin-4-yl)-1H-pyrazol-5-yl)pyrazolo[1,5-a]pyrimidine-3-carboxamide]	–	< 0.1 µM
Cc1ccc(-n2nc(C3CCN(C4CCN(C5CC5)CC4)CC3)cc2NC(=O)c2cnn3cccnc23)nc1 [Example 267, N-[3-(1′-cyclopropyl-1,4′-bipiperidin-4-yl)-1-(5-methylpyridin-2-yl)-1H-pyrazol-5-yl]pyrazolo[1,5-a]pyrimidine-3-carboxamide]	–	< 0.1 µM
Cc1ccc(-n2nc(C3CN(Cc4ccccn4)C3)cc2NC(=O)c2cnn3cccnc23)cc1 [Example 308, N-{1-(4-methylphenyl)-3-[1-(pyridin-2-ylmethyl)azetidin-3-yl]-1H-pyrazol-5-yl}pyrazolo[1,5-a]pyrimidine-3-carboxamide]	< 1 µM	–
Cc1ccc(-n2nc(C3CCN(C4CCc5ccncc5C4)CC3)cc2NC(=O)c2cnn3cccnc23)nc1 (stereo not shown) [Example 268, N-{1-(5-methylpyridin-2-yl)-3-[1-(5,6,7,8-tetrahydroisoquinolin-7-yl)piperidin-4-yl]-1H-pyrazol-5-yl}pyrazolo[1,5-a]pyrimidine-3-carboxamide]	–	< 0.1 µM
COc1cc(NC(=O)c2cnn3cccnc23)n(-c2ccc(C)cn2)n1 [Example 182, N-(3-methoxy-1-(5-methylpyridin-2-yl)-1H-pyrazol-5-yl)pyrazolo[1,5-a]pyrimidine-3-carboxamide]	< 1 µM	–
